From PubChem BioAssay (NCI)
Several values for one entry are separate records, joined by “and”; a condition that tells them apart may be missing. Equal values may be shown once.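 How tested: cells in 96-well plates exposed to compound for 48 hours at five concentrations. Abbreviation: GI50, concentration required for 50% inhibition of growth. TGI: concentration producing complete growth inhibition.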

Experiments:
Experiment in all cases: NCI tumour cell line growth inhibition, 48 h
OVCAR-3 ovarian = test system: OVCAR-3 ovarian
LOX IMVI melanoma = test system: LOX IMVI melanoma
NCI-H522 lung = test system: NCI-H522 lung
UACC-257 melanoma = test system: UACC-257 melanoma
MALME-3M melanoma = test system: MALME-3M melanoma
SK-MEL-28 melanoma = test system: SK-MEL-28 melanoma
BT-549 breast = test system: BT-549 breast
SR leukemia = test system: SR leukemia
SNB-75 CNS = test system: SNB-75 CNS
OVCAR-5 ovarian = test system: OVCAR-5 ovarian

Row | SMILES | GI50 (OVCAR-3 ovarian) | TGI (OVCAR-3 ovarian) | GI50 (LOX IMVI melanoma) | TGI (LOX IMVI melanoma) | GI50 (NCI-H522 lung) | TGI (NCI-H522 lung) | GI50 (UACC-257 melanoma) | TGI (UACC-257 melanoma) | GI50 (MALME-3M melanoma) | TGI (MALME-3M melanoma) | GI50 (SK-MEL-28 melanoma) | TGI (SK-MEL-28 melanoma) | GI50 (BT-549 breast) | TGI (BT-549 breast) | GI50 (SR leukemia) | TGI (SR leukemia) | GI50 (SNB-75 CNS) | TGI (SNB-75 CNS) | GI50 (OVCAR-5 ovarian) | TGI (OVCAR-5 ovarian)
1 | COc1cc2ncnc(Nc3ccc4c(cnn4Cc4ccccc4)c3)c2cc1OC | 15.1 µM | > 25 µM | > 19.4 µM | > 25 µM | 0.724 µM | > 25 µM | > 25 µM | > 25 µM | > 25 µM | > 25 µM | > 25 µM | > 25 µM | 16.5 µM | > 25 µM | 24.9 µM | > 25 µM | > 25 µM | > 25 µM | > 25 µM | > 25 µM
2 | CN1CCN(c2nc(NCCCNc3ccnc4cc(Cl)ccc34)c3ccccc3n2)CC1 | 6.93 µM | 21.6 µM | 1.96 µM | 4.2 µM | 3.24 µM | 7.7 µM | 2.02 µM | 3.83 µM | 1.98 µM | 3.84 µM | 2.17 µM | 4.22 µM | 4.4 µM | 16.7 µM | 1.74 µM | 6.05 µM | 5.45 µM | 20.7 µM | 4.17 µM | 19.1 µM
3 | Cc1[nH]c(-c2nc3ccccc3[nH]2)c(C)c1C(=O)NC(C)C1CCCCC1 (configuration not stated) | 9.72 µM | 21.6 µM | 10 µM | 29.7 µM | 13.2 µM | 44 µM | 13.2 µM | 33.3 µM | 5.68 µM | 22.5 µM | 10.4 µM | 23.5 µM | 10.7 µM | 23.2 µM | 4.38 µM | 34.5 µM | 3.62 µM | 16.4 µM | 15 µM | 29.2 µM
4 | COc1ccc2c(Cl)cc(NC(=O)Nc3c(C)cccc3C)nc2c1 | 23.5 µM | > 100 µM | 17.3 µM | > 100 µM | > 100 µM | > 100 µM | 20 µM | > 100 µM | 10.2 µM | 58.5 µM | 31 µM | > 100 µM | 36 µM | > 100 µM | 27.5 µM | > 100 µM | 1.47 µM | 6.01 µM | > 100 µM | > 100 µM
5 | CCCCNC(=O)c1cc(NCc2cc(O)ccc2O)ccc1O | 4.8 µM | 17.1 µM | 14.7 µM | 29.2 µM | 1.32 µM | 2.94 µM | 16.4 µM | 32.4 µM | 11.8 µM | 27.3 µM | 16.3 µM | 30.3 µM | 3.24 µM | 13.5 µM | 5.35 µM | > 100 µM | 18.5 µM | > 100 µM | 17.4 µM | 32 µM
6 | N#Cc1c(N)nc(N)nc1N[C@H](c1nc2c(F)ccc(Cl)c2c(=O)n1-c1cccnc1)C1CC1 | 1.47 µM | 16.3 µM | 5.51 µM | 20.1 µM | 34.2 µM | > 100 µM | 8.18 µM | > 100 µM | 10.9 µM | > 100 µM | 7.23 µM | > 100 µM | 0.761 µM | 17.3 µM | 13.4 µM | 52.5 µM | 0.171 µM | 6.9 µM | 2.72 µM | 45.7 µM
7 | CN(C)CC(C(=O)Cc1ccccc1)c1ccccc1 (configuration not stated) | 1.9 µM | 3.48 µM | 1.39 µM | 3.04 µM | 1.74 µM | 3.47 µM | 1.79 µM | 4.25 µM | 1.74 µM | 3.89 µM | 3.22 µM | 10.2 µM | 3.18 µM | 8.74 µM | 1.24 µM | 7.55 µM | 2.72 µM | 11.5 µM | 8.19 µM | 22.4 µM
8 | CCc1cc2ncc(CN3CCN(c4ccc(C(=O)NC)nc4)CC3)cc2[nH]c1=O | 40.5 µM | > 100 µM | 60 µM | > 100 µM | 27.1 µM | > 100 µM | 55.1 µM | > 100 µM | > 100 µM | > 100 µM | > 100 µM | > 100 µM | 25.9 µM | > 100 µM | 11.5 µM | > 100 µM | 18 µM | > 100 µM | > 100 µM | > 100 µM
9 | CCN(CC)CCN(Cc1ccc(F)cc1)c1ccc(CO)c(Cl)c1 | 14 µM | 35.9 µM | 21.1 µM | 52.5 µM | 27.9 µM | 68.2 µM | 12 µM | 27.7 µM | 19.5 µM | 37.3 µM | 17.2 µM | 32.9 µM | > 89.6 µM | > 100 µM | 23.5 µM | 67.9 µM | 12.2 µM | > 94.8 µM | 3.25 µM | 12.4 µM
10 | Cc1ccc(C(SCC(N)C(=O)O)(c2ccccc2)c2ccccc2)cc1 (configuration not stated) | 0.0391 µM | 0.158 µM | 0.247 µM | 21.6 µM | 0.0403 µM | 85.1 µM | 22.8 µM | > 100 µM | – | > 100 µM | 6.5 µM | > 100 µM | 0.145 µM | > 69.7 µM | 0.0724 µM | > 45.8 µM | 0.128 µM | 58.3 µM | 2.41 µM | > 100 µM
11 | C/C=C/[C@H]1O[C@@H]2C(=C[C@H]1O)C(=O)O[C@H]2C | 18 µM | 39.2 µM | 15 µM | 31.5 µM | 5.02 µM | > 42.9 µM | 21.7 µM | 43.7 µM | 7.59 µM | 24.2 µM | 0.786 µM | 12.1 µM | 10.5 µM | 22.5 µM | 7.29 µM | > 100 µM | 1.23 µM | 26.4 µM | 23.2 µM | 45.8 µM
12 | C/C(=N\NC(=S)N1CC2CCC(CC2)C1)c1cccc(C)n1 | 0.00014 µM | 9.75 µM | 0.179 µM | 8.16 µM | 0.232 µM | 0.343 µM and 1.5 µM | 0.68 µM | 9.8 µM | 0.605 µM | 17.8 µM | – | 17.7 µM | – | 10.3 µM | 0.21 µM | > 32.9 µM | – | 13.1 µM | < 0.0001 µM | 15.9 µM
13 | COc1ccc(/C=C2\CN(Cc3cn(CCNc4ccnc5cc(Cl)ccc45)nn3)C/C(=C\c3ccc(OC)c(OC)c3)C2=O)cc1OC | 2.8 µM | 8.57 µM | 2.1 µM | 4.82 µM | 2.24 µM | 6.38 µM | 4.8 µM | 23.1 µM | 2.78 µM | 6.19 µM | 2.29 µM | 5.97 µM | 2.16 µM | 4.84 µM | 2.04 µM | > 100 µM | 6.67 µM | 40.7 µM | 4.55 µM | 21.5 µM
14 | CCCCNC(=O)Oc1ccc(/C(=C(/C)Cc2ccc(OC)cc2)c2ccc(OCCN3CCCC3)cc2)cc1 | 1.79 µM | 3.47 µM | 1.67 µM | 3.2 µM | 2.02 µM | 4.05 µM | 1.88 µM | 3.44 µM | 1.7 µM | 3.28 µM | 1.83 µM | 3.57 µM | 1.52 µM | 2.98 µM | 1.86 µM | 5.44 µM | 1.56 µM | 4.5 µM | 3.6 µM | 12.7 µM
15 | CCOC(=O)c1oc2ccc([N+](=O)[O-])c3c2c1CCC3 | – | > 100 µM | – | > 88.1 µM | – | > 85.2 µM | – | > 100 µM | – | > 100 µM | – | > 100 µM | – | > 93 µM | – | > 100 µM | – | 33.5 µM | – | > 100 µM
16 | CCCCC(=O)N/N=C/c1c(O)ccc2ccccc12 | 0.423 µM | 9.37 µM | 1.15 µM | > 31.8 µM | 1.77 µM | 10.2 µM | 3 µM | > 24.6 µM | 3.06 µM | 20.3 µM | 2.16 µM | > 52.2 µM | 0.537 µM | 6.6 µM | 0.45 µM | 3.57 µM | 1.57 µM | > 100 µM | 6.97 µM | > 100 µM
17 | O=S1(=O)CS(=O)(=O)OCCO1 | – | 87.5 µM | 29.7 µM | 71.3 µM | > 96.4 µM | 140 µM | > 63.8 µM | 153 µM | – | 214 µM | > 93.9 µM | 300 µM | 69.2 µM | 156 µM | 1.15 µM | – | 56.9 µM | 57.2 µM | – | 269 µM
18 | CN1CCN(Cc2ccc(NC(=O)c3cncc(C#Cc4cncc5nccnc45)c3)cc2C(F)(F)F)CC1 | 4.95 µM | 15.1 µM | 0.695 µM | 5.48 µM | 3.17 µM | 10.8 µM | 1.48 µM | 6.27 µM | 0.231 µM | 1.3 µM | 1.66 µM | 5.97 µM | 5.27 µM | 11.2 µM | 2.98 µM | 28.5 µM | 5.04 µM | 11.5 µM | 2.15 µM | 32.8 µM
19 | C[C@]12CC[C@H]3[C@@H](C[C@@H]4SC(Nc5ccccc5)=N[C@@]45CC(O)CC[C@]35C)[C@@H]1CCC2O (some centres not stated) | 1.28 µM | 2.62 µM | 1.33 µM | 2.77 µM | 1.9 µM | 4.5 µM | 2.54 µM | 6.68 µM | 2.19 µM | 5.89 µM | 1.68 µM | 3.99 µM | 1.38 µM | 4.31 µM | 0.241 µM | 6.1 µM | 1.49 µM | 3.05 µM | 2.68 µM | 7.86 µM
